Data published in article PMC3703636 (2013).

Tests used:
Assay in all cases: gel filtration, radiolabeled GTP
Conditions in all cases: reduced relative to wild type
[1] = tested on: c-MYC transcriptional repressor mut (DNA, G4) GGGTAGGAAGGGTAGGA
[2] = tested on: NRAS translational repressor mut (RNA, G4) GGUAGGGUCGGUUCUGGU
[3] = tested on: VEGF IRES mut (RNA, G4) UGAUGAGUGUGAGGAGGA

Measured: binding

Nc1nc2c(ncn2[C@@H]2O[C@H](COP(=O)(O)OP(=O)(O)OP(=O)(O)O)[C@@H](O)[C@H]2O)c(=O)[nH]1
weak: all assays above
